Test results reported in the NIST ThermoML archive (doi:10.1021/je700260f).

Details: Liquid, Vibrating tube method

FC(C(F)(F)F)C(F)(F)F [1,1,1,2,3,3,3-heptafluoropropane]
Details	mass density [kg/m3]
303.15 K, 31383 kPa	1520.3
303.15 K, 31415 kPa	1520.5
303.15 K, 31442 kPa	1520.5
303.15 K, 31478 kPa	1520.6
303.15 K, 31506 kPa	1520.8
303.15 K, 31538 kPa	1520.8
303.15 K, 31570 kPa	1521.1
303.15 K, 31607 kPa	1521.1
303.15 K, 31634 kPa	1521.1
303.15 K, 31671 kPa	1521.3
303.15 K, 31699 kPa	1521.4
303.15 K, 31745 kPa	1521.4
303.15 K, 31773 kPa	1521.7
303.15 K, 31806 kPa	1521.7
303.15 K, 31839 kPa	1521.9
303.15 K, 31871 kPa	1521.8
303.15 K, 31914 kPa	1522
303.15 K, 33938 kPa	1528.3
303.15 K, 33968 kPa	1528.3
303.15 K, 34013 kPa	1528.4
303.15 K, 34044 kPa	1528.6
303.15 K, 34091 kPa	1528.8
303.16 K, 1756 kPa	1377.1
303.16 K, 1773 kPa	1377.2
303.16 K, 1841 kPa	1377.8
303.16 K, 2155 kPa	1380.4
303.16 K, 2175 kPa	1380.5
303.16 K, 2196 kPa	1380.8
303.16 K, 2220 kPa	1380.9
303.16 K, 2238 kPa	1381
303.16 K, 2262 kPa	1381.2
303.16 K, 2781 kPa	1385.3
303.16 K, 2809 kPa	1385.5
303.16 K, 2833 kPa	1385.7
303.16 K, 2855 kPa	1385.8
303.16 K, 2874 kPa	1386.1
303.16 K, 2903 kPa	1386.2
303.16 K, 2923 kPa	1386.5
303.16 K, 2945 kPa	1386.6
303.16 K, 2970 kPa	1386.7
303.16 K, 3045 kPa	1387.3
303.16 K, 3161 kPa	1388.3
303.16 K, 3180 kPa	1388.4
303.16 K, 3245 kPa	1388.9
303.16 K, 3334 kPa	1389.4
303.16 K, 4314 kPa	1396.7
303.16 K, 4345 kPa	1396.9
303.16 K, 4366 kPa	1397.2
303.16 K, 4395 kPa	1397.2
303.16 K, 4845 kPa	1400.4
303.16 K, 9092 kPa	1427.1
303.16 K, 9131 kPa	1427.4
303.16 K, 9158 kPa	1427.5
303.16 K, 9192 kPa	1427.6
303.16 K, 9223 kPa	1427.9
303.16 K, 20848 kPa	1482.9
303.16 K, 20912 kPa	1483.1
303.16 K, 20941 kPa	1483.3
303.16 K, 20974 kPa	1483.4
303.16 K, 21003 kPa	1483.6
313.14 K, 2256 kPa	1337.4
313.14 K, 2281 kPa	1337.6
313.14 K, 2307 kPa	1337.9
313.14 K, 2329 kPa	1337.9
313.14 K, 2362 kPa	1338.4
313.14 K, 2381 kPa	1338.6
313.14 K, 2406 kPa	1338.8
313.14 K, 2431 kPa	1339.2
313.14 K, 2463 kPa	1339.5
313.14 K, 2485 kPa	1339.7
313.14 K, 2518 kPa	1339.8
313.14 K, 2546 kPa	1340.2
313.14 K, 2571 kPa	1340.5
313.14 K, 2596 kPa	1340.7
313.14 K, 2621 kPa	1340.9
313.14 K, 2650 kPa	1341.2
313.14 K, 2671 kPa	1341.5
313.14 K, 3117 kPa	1345.6
313.14 K, 3144 kPa	1345.9
313.14 K, 3170 kPa	1346
313.14 K, 3193 kPa	1346.3
313.14 K, 3223 kPa	1346.7
313.14 K, 3247 kPa	1346.8
313.14 K, 3275 kPa	1347
313.14 K, 4237 kPa	1355.5
313.14 K, 4266 kPa	1355.8
313.14 K, 4299 kPa	1356.1
313.14 K, 4328 kPa	1356.3
313.14 K, 4487 kPa	1357.8
313.14 K, 4509 kPa	1358
313.14 K, 4539 kPa	1358.2
313.14 K, 4561 kPa	1358.3
313.14 K, 4590 kPa	1358.4
313.14 K, 4614 kPa	1358.7
313.14 K, 4639 kPa	1359
313.14 K, 4660 kPa	1359.2
313.14 K, 4688 kPa	1359.4
313.14 K, 4710 kPa	1359.5
313.14 K, 5002 kPa	1362.2
313.14 K, 6187 kPa	1371.4
313.14 K, 6210 kPa	1371.5
313.14 K, 6240 kPa	1371.6
313.14 K, 6264 kPa	1371.8
313.14 K, 6295 kPa	1372.2
313.14 K, 6319 kPa	1372.4
313.14 K, 6347 kPa	1372.4
313.14 K, 6379 kPa	1372.7
313.14 K, 8595 kPa	1388.5
313.14 K, 12590 kPa	1413.1
313.14 K, 13048 kPa	1415.8
313.14 K, 13083 kPa	1416
313.14 K, 14273 kPa	1422.5
313.14 K, 14312 kPa	1422.7
313.14 K, 14342 kPa	1422.9
313.14 K, 18535 kPa	1443.8
313.14 K, 18569 kPa	1443.9
313.14 K, 18598 kPa	1444.1
313.14 K, 18633 kPa	1444.1
313.14 K, 18662 kPa	1444.3
313.14 K, 25516 kPa	1473.5
313.14 K, 25569 kPa	1473.8
313.14 K, 25615 kPa	1473.9
313.14 K, 25663 kPa	1474
313.14 K, 25698 kPa	1474.2
313.14 K, 25734 kPa	1474.4
313.14 K, 25776 kPa	1474.5
313.14 K, 25819 kPa	1474.7
313.14 K, 25862 kPa	1474.7
313.14 K, 25905 kPa	1475
313.14 K, 25953 kPa	1475.3
313.14 K, 25993 kPa	1475.3
313.14 K, 26035 kPa	1475.5
313.14 K, 26070 kPa	1475.7
313.14 K, 26129 kPa	1475.7
313.14 K, 26171 kPa	1475.9
313.14 K, 26230 kPa	1476.2
313.14 K, 26265 kPa	1476.5
313.14 K, 26307 kPa	1476.7
313.14 K, 26355 kPa	1476.6
313.14 K, 26384 kPa	1476.9
313.14 K, 26431 kPa	1477
313.14 K, 26467 kPa	1477.1
313.14 K, 26516 kPa	1477.3
313.14 K, 26563 kPa	1477.5
313.14 K, 26598 kPa	1477.7
313.14 K, 26634 kPa	1477.8
313.14 K, 26676 kPa	1477.9
313.14 K, 26712 kPa	1478
313.14 K, 26759 kPa	1478.2
313.14 K, 26806 kPa	1478.3
313.14 K, 26855 kPa	1478.6
313.14 K, 26891 kPa	1478.6
313.14 K, 26928 kPa	1478.9
313.14 K, 26976 kPa	1479
313.14 K, 27297 kPa	1480.2
313.14 K, 27651 kPa	1481.6
313.14 K, 27676 kPa	1481.7
313.14 K, 27719 kPa	1481.9
313.14 K, 27749 kPa	1482
313.14 K, 27835 kPa	1482.4
313.14 K, 27864 kPa	1482.4
313.14 K, 28790 kPa	1485.8
313.14 K, 28820 kPa	1485.9
313.14 K, 28855 kPa	1486.1
313.14 K, 28889 kPa	1486.1
313.14 K, 28918 kPa	1486.2
313.14 K, 28953 kPa	1486.3
313.14 K, 28993 kPa	1486.5
313.14 K, 29033 kPa	1486.8
313.14 K, 29059 kPa	1486.6
313.14 K, 29641 kPa	1489
313.14 K, 29682 kPa	1489.1
313.14 K, 29711 kPa	1489.2
313.14 K, 29757 kPa	1489.4
313.14 K, 29798 kPa	1489.5
313.14 K, 29841 kPa	1489.5
313.14 K, 29883 kPa	1489.8
313.14 K, 29915 kPa	1489.9
313.14 K, 29950 kPa	1489.9
313.14 K, 29980 kPa	1490.2
313.14 K, 30015 kPa	1490.2
313.14 K, 30045 kPa	1490.2
313.14 K, 30081 kPa	1490.3
313.14 K, 30117 kPa	1490.6
313.14 K, 30159 kPa	1490.6
313.14 K, 30185 kPa	1490.7
313.14 K, 30217 kPa	1491
313.14 K, 30259 kPa	1491.1
313.14 K, 30299 kPa	1491.3
313.14 K, 30342 kPa	1491.3
313.14 K, 30376 kPa	1491.5
313.14 K, 30424 kPa	1491.8
313.14 K, 30466 kPa	1491.8
313.14 K, 30511 kPa	1492
313.14 K, 30547 kPa	1492
313.14 K, 30593 kPa	1492.2
313.14 K, 30624 kPa	1492.2
313.14 K, 30664 kPa	1492.6
313.14 K, 30690 kPa	1492.5
313.14 K, 30727 kPa	1492.7
313.14 K, 30775 kPa	1492.8
313.14 K, 30815 kPa	1493
313.14 K, 30847 kPa	1493.3
313.14 K, 30889 kPa	1493.2
313.14 K, 30921 kPa	1493.5
313.14 K, 30962 kPa	1493.5
